{"source": "patent US12134620B2", "about": "(ARAXES PHARMA LLC, priority 2018, dated 2024)", "data": [{"target": "T1, KRAS G12C 1-169, his-tagged protein, GDP-loaded (Homo sapiens, UniProt P01116, G12C)", "T1 construct": "KRAS G12C 1-169, his-tagged protein, GDP-loaded; His tag", "experiment": "Biochemical assay: covalent modification of KRAS G12C, analysed by mass spectrometry (RapidFire/TOF or Q-Exactive); note: time not given here", "assay_type": "binding", "conditions": "Modification activity, modification percentage from MS peak intensities", "in_short": "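Covalent adduct formation was quantified by intact-protein mass spectrometry, either TOF or C4 LC-Q Exactive Plus, as percent modified versus unmodified protein after deconvolution. Compounds at 8 or 32 μM final were incubated with 0.5 or 2 μM GDP-bound KRAS G12C(1-169)-His in Hepes/NaCl/MgCl2 buffer before acid quench.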", "values": [{"smiles": "C=CC(=O)N1CC2(CCN(c3ncnc(-c4c(C)ccc5[nH]ncc45)c3C(F)(F)F)C2)C1", "note": "[Compound I-260, 1-(6-(6-(5-methyl-1H-indazol-4-yl)-5-(trifluoromethyl)pyri-midin-4-yl)-2,6-diazaspiro[3.4]octan-2-yl)prop-2-en-1-one]", "Binding %": "+ (+ indicates binding activity greater than 0% and up to 50%)"}, {"smiles": "C=CC(=O)N1CC2(CCN(c3ncnc(-c4c(C)ccc5[nH]ncc45)c3N3CCCC3)C2)C1", "note": "[Compound I-261, 1-(6-(6-(5-methyl-1H-indazol-4-yl)-5-(pyrrolidin-1-yl)pyrimidin-4-yl)-2,6-diazaspiro[3.4]octan-2-yl)prop-2-en-1-one]", "Binding %": "+ (+ indicates binding activity greater than 0% and up to 50%)"}, {"smiles": "C=CC(=O)N1CC2(CCN(c3ncnc(-c4c(C)ccc5[nH]ncc45)c3CC)C2)C1", "note": "[Compound I-262, 1-(6-(5-ethyl-6-(5-methyl-1H-indazol-4-yl)pyrimidin-4-yl)-2,6-diazaspiro[3.4]octan-2-yl)prop-2-en-1-one]", "Binding %": "+ (+ indicates binding activity greater than 0% and up to 50%)"}, {"smiles": "C=CC(=O)N1CC2(CCN(c3cncc(-c4c(C)ccc5[nH]ncc45)c3C#N)CC2)C1", "note": "[Compound I-263, 3-(2-acryloyl-2,7-diazaspiro[3.5]nonan-7-yl)-5-(5-methyl-1H-indazol-4-yl)isonicotinonitrile]", "Binding %": "+ (+ indicates binding activity greater than 0% and up to 50%)"}, {"smiles": "C=CC(=O)N1CC2(CCN(c3cncc(-c4c(C)ccc5cnn(C)c45)c3C#N)C2)C1", "note": "[Compound I-264, 3-(2-acryloyl-2,6-diazaspiro[3.4]octan-6-yl)-5-(1,6-dimethyl-1H-indazol-7-yl)isonicotinonitrile]", "Binding %": "++ (++ indicates binding activity from 50 to 85%)"}, {"smiles": "C=CC(=O)N1CC2(CCN(c3cncc(-c4c(C)ccc5cnn(C)c45)c3C#N)CC2)C1", "note": "[Compound I-265, 3-(2-acryloyl-2,7-diazaspiro[3.5]nonan-7-yl)-5-(1,6-dimethyl-1H-indazol-7-yl)isonicotinonitrile]", "Binding %": "+ (+ indicates binding activity greater than 0% and up to 50%)"}, {"smiles": "C/C=C/C(=O)N1CC2(CCN(c3ncnc(-c4c(C)ccc5[nH]ncc45)c3C#N)C2)C1", "note": "[Compound I-266, (E)-4-(2-(but-2-enoyl)-2,6-diazaspiro[3.4]octan-6-yl)-6-(5-methyl-1 1H-indazol-4-yl)pyrimidine-5-carbonitrile]", "Binding %": "+ (+ indicates binding activity greater than 0% and up to 50%)"}, {"smiles": "C=CC(=O)N1CC2(CCN(c3nccc(-c4c(C)ccc5[nH]ncc45)c3C#N)C2)C1", "note": "[Compound I-267, 2-(2-acryloyl-2,6-diazaspiro[3.4]octan-6-yl)-4-(5-methyl-1H-indazol-4-yl)nicotinonitrile]", "Binding %": "+ (+ indicates binding activity greater than 0% and up to 50%)"}, {"smiles": "C#Cc1c(-c2c(C)ccc3[nH]ncc23)ncnc1N1CCC2(CN(C(=O)C=C)C2)C1", "note": "[Compound I-268, 1-(6-(5-ethynyl-6-(5-methyl-1H-indazol-4-yl)pyrimidin-4-yl)-2,6-diazaspiro[3.4]octan-2-yl)prop-2-en-1-one]", "Binding %": "+ (+ indicates binding activity greater than 0% and up to 50%)"}, {"smiles": "C=CC(=O)N1CC2(CCN(c3cncc(-c4c(O)cccc4F)c3C#N)C2)C1", "note": "[Compound I-269, 3-(2-acryloyl-2,6-diazaspiro[3.4]octan-6-yl)-5-(2-fluoro-6-hydroxyphenyl)isoni-cotinonitrile]", "Binding %": "+ (+ indicates binding activity greater than 0% and up to 50%)"}, {"smiles": "CC#CC(=O)N1CC2(CCN(c3cncc(-c4c(O)cccc4F)c3C#N)C2)C1", "note": "[Compound I-270, 3-(2-(but-2-ynoyl)-2,6-diazaspiro[3.4]octan-6-yl)-5-(2-fluoro-6-hydroxyphenyl)isoni-cotinonitrile]", "Binding %": "+ (+ indicates binding activity greater than 0% and up to 50%)"}, {"smiles": "CC#CC(=O)N1CC2(CCN(c3cncc(-c4c(C)ccc5cnn(C)c45)c3C#N)C2)C1", "note": "[Compound I-271, 3-(2-(but-2-ynoyl)-2,6-diazaspiro[3.4]octan-6-yl)-5-(1,6-dimethyl-1H-indazol-7-yl)isonicotinonitrile]", "Binding %": "+ (+ indicates binding activity greater than 0% and up to 50%)"}, {"smiles": "CC#CC(=O)N1CC2(CCN(c3cncc(-c4c(C)ccc5[nH]ncc45)c3C#N)C2)C1", "note": "[Compound I-272, 3-(2-(but-2-ynoyl)-2,6-diazaspiro[3.4]octan-6-yl)-5-(5-methyl-1H-indazol-4-yl)isonicotinonitrile]", "Binding %": "+ (+ indicates binding activity greater than 0% and up to 50%)"}, {"smiles": "C=CC(=O)N1CC2(CC(=O)N(c3ncnc(-c4c(C)ccc5[nH]ncc45)c3C#N)C2)C1", "note": "[Compound I-273, 4-(2-acryloyl-7-oxo-2,6-diazaspiro[3.4]octan-6-yl)-6-(5-methyl-1H-indazol-4-yl)pyrimidine-5-carbonitrile]", "Binding %": "+ (+ indicates binding activity greater than 0% and up to 50%)"}, {"smiles": "C=CC(=O)N1CC2(CCN(c3ccnc(-c4c(C)ccc5[nH]ncc45)n3)C2)C1", "note": "[Compound I-274, 1-(6-(2-(5-methyl-1H-indazol-4-yl)pyrimidin-4-yl)-2,6-diazaspiro[3.4]octan-2-yl)prop-2-en-1-one]", "Binding %": "+ (+ indicates binding activity greater than 0% and up to 50%)"}, {"smiles": "C=CC(=O)N1CC2(CCN(c3nccc(-c4c(C)ccc5[nH]ncc45)n3)C2)C1", "note": "[Compound I-275, 1-(6-(4-(5-methyl-1H-indazol-4-yl)pyrimidin-2-yl)-2,6-diazaspiro[3.4]octan-2-yl)prop-2-en-1-one]", "Binding %": "+ (+ indicates binding activity greater than 0% and up to 50%)"}, {"smiles": "C=CC(=O)N1CC2(CCN(c3cncc(-c4c(C)ccc5[nH]nc(N)c45)c3C#N)C2)C1", "note": "[Compound I-277, 3-(2-acryloyl-2,6-diazaspiro[3.4]octan-6-yl)-5-(3-amino-5-methyl-1H-indazol-4-yl)isonicotinonitrile]", "Binding %": "++ (++ indicates binding activity from 50 to 85%)"}, {"smiles": "CC#CC(=O)N1CC2(CCN(c3cncc(-c4c(C)ccc5[nH]nc(N)c45)c3C#N)C2)C1", "note": "[Compound I-278, 3-(3-amino-5-methyl-1H-indazol-4-yl)-5-(2-(but-2-ynoyl)-2,6-diazaspiro[3.4]octan-6-yl)isonicotinonitrile]", "Binding %": "+ (+ indicates binding activity greater than 0% and up to 50%)"}, {"smiles": "Cc1ccc2[nH]ncc2c1-c1cncc(N2CCC3(CN(C(=O)/C=C/CN(C)C)C3)C2)c1C#N", "note": "[Compound I-279, (E)-3-(2-(4-(dimethylamino)but-2-enoyl)-2,6-diazaspiro[3.4]octan-6-yl)-5-(5-methyl-1H-indazol-4-yl)isonicotinonitrile]", "Binding %": "+ (+ indicates binding activity greater than 0% and up to 50%)"}, {"smiles": "C=CC(=O)N1CC2(CCN(c3ncnc(-c4c(C)ccc5[nH]ncc45)n3)C2)C1", "note": "[Compound I-280, 1-(6-(4-(5-methyl-1H-indazol-4-yl)-1,3,5-triazin-2-yl)-2,6-diazaspiro[3.4]octan-2-yl)prop-2-en-1-one]", "Binding %": "+ (+ indicates binding activity greater than 0% and up to 50%)"}, {"smiles": "C=CC(=O)N1CC2(CCN(c3ncnc(-c4c(C)ccc5[nH]ncc45)c3C#N)CC2)C1C(C)C", "note": "(stereo not drawn) [Compound I-281, 4-(2-acryloyl-1-isopropyl-2,7-diazaspiro[3.5]nonan-7-yl)-6-(5-methyl-1H-indazol-4-yl)pyrimidine-5-carbonitrile]", "Binding %": "+ (+ indicates binding activity greater than 0% and up to 50%)"}]}]}
